Laboratory results taken from ChEMBL document CHEMBL5370665, “Insight from Linker Investigations: Discovery of a Novel Phenylbenzothiazole Necroptosis Inhibitor Targeting Receptor-Interacting Protein Kinase 1 (RIPK1) from a Phenoxybenzothiazole Compound with Dual RIPK1/3 Targeting Activity” (J Med Chem, 2023).
Active and inactive are the calls of the source. No cut-off for these calls is given here.

Tests used:
[1] = Acute toxicity in mouse assessed as pathological damage in spleen at 100 to 200 mg/kg,IG and measured after 14 days by H and E staining based microscopy; assay type: organism-based; conditions: in vivo, po, 336 h, dose 100-200 mg/kg, time 14 day
[2] = Acute toxicity in mouse assessed as death at 100 to 200 mg/kg,IG and measured upto 14 days; assay type: organism-based; conditions: in vivo, po, 336 h, dose 100-200 mg/kg, time < 14 day
Mus musculus [3] = assay: Anti-inflammatory activity against C57BL/6J mouse model of TNFalpha-induced systemic inflammatory response syndrome (SIRS) assessed as decrease in IL-6 level in intestine at 1.25 to 5 mg/kg,po 2 hrs prior to mTNFalpha and z-VAD-FMK stimulation for 8 hrs by ELISA; assay type: functional, organism-based; conditions: dose 1.25-5 mg/kg, time 10.0 hrs
Mus musculus [4] = assay: Anti-inflammatory activity against C57BL/6J mouse model of TNFalpha-induced systemic inflammatory response syndrome (SIRS) assessed as increase in body temperature at 2.5 mg/kg,po 2 hrs prior to mTNFalpha and z-VAD-FMK stimulation and measured upto 18 hrs by electric thermometer analysis; assay type: functional, organism-based; conditions: time 20.0 hrs
Mus musculus [5] = assay: Anti-inflammatory activity against C57BL/6J mouse model of TNFalpha-induced systemic inflammatory response syndrome (SIRS) assessed as decrease in IL-6 level in lung at 1.25 to 5 mg/kg,po 2 hrs prior to mTNFalpha and z-VAD-FMK stimulation for 8 hrs by ELISA; assay type: functional, organism-based; conditions: dose 1.25-5 mg/kg, time 10.0 hrs
[6] = biological target: T1, Mixed lineage kinase domain-like protein (Homo sapiens) (UniProt Q8NB16); assay: Inhibition of MLKL phosphorylation in TSZ induced human HT-29 cells at 1 uM pretreated with compound followed by TSZ stimulation for 6 hrs by Western blot analysis; assay type: cell-based
T1 sequence (whole entry): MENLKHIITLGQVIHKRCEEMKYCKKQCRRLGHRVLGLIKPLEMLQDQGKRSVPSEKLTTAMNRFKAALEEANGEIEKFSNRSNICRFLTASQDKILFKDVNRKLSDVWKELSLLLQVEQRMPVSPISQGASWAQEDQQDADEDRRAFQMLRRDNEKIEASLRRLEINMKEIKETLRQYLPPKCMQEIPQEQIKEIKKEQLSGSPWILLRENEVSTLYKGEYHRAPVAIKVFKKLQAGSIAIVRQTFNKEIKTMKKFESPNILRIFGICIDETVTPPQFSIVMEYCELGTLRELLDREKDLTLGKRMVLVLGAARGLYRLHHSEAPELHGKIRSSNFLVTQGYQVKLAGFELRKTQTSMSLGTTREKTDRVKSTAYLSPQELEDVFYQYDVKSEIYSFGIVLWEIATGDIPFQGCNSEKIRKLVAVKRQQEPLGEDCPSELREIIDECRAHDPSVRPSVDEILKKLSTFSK

HT-29 [7] = assay: Anti-apoptotic activity against human HT-29 cells assessed as inhibition of TC (human TNFalpha, cycloheximide) induced apoptosis upto 20 uM pretreated with compound followed by TC stimulation for 36 hrs by CellTiter-Glo Luminescent cell viability assay; assay type: functional, cell-based
[8] = Metabolic stability in human liver mitochondria assessed as degradation rate at 4 micromol/L and measured upto 240 mins; assay type: ADME; conditions: 4 h, 4 µM, dose 4 µmol/L
HT-29 [9] = assay: Anti-apoptotic activity against human HT-29 cells assessed as inhibition of TS (human TNFalpha, Smac mimetic) induced apoptosis upto 1 uM pretreated with compound followed […] for 24 hrs by CellTiter-Glo Luminescent cell viability assay; assay type: functional, cell-based
[10] = biological target: T2, Receptor-interacting serine/threonine-protein kinase 1 (Homo sapiens, UniProt Q13546); assay: Binding affinity to recombinant RIPK1 (unknown origin) assessed as dissociation constant incubated for 1 hr by KINOMEscanTM assay
T2 sequence (Q13546 whole entry): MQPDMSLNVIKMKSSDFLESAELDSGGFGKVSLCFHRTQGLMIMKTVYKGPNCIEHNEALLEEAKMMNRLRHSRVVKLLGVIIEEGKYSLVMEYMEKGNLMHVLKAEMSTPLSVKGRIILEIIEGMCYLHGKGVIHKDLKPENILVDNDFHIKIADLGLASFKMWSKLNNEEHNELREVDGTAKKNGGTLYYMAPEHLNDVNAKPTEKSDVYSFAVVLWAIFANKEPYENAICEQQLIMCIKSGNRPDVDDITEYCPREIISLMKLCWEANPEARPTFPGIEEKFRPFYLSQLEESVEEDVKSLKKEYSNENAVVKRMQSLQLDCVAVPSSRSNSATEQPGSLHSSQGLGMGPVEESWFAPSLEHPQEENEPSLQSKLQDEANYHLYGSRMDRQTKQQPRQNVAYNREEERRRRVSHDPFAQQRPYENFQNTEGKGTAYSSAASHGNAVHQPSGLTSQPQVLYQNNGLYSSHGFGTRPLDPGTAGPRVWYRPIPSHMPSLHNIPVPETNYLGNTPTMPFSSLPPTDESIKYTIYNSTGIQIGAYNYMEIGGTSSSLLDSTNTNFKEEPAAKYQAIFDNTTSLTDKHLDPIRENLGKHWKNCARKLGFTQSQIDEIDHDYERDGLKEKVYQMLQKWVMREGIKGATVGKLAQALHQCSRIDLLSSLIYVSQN

[11] = biological target: T1, Mixed lineage kinase domain-like protein (Homo sapiens); assay: Inhibition of MLKL phosphorylation in TSZ induced human HT-29 cells at 1 to 1000 nM pretreated with compound followed by TSZ stimulation for 6 hrs by Western blot analysis; assay type: cell-based; conditions: dose 1-1000 nM
[12] = biological target: T3, Receptor-interacting serine/threonine-protein kinase 3 (Homo sapiens, UniProt Q9Y572); assay: Inhibition of RIPK3 phosphorylation in TSZ induced human HT-29 cells at 1 uM pretreated with compound followed by TSZ stimulation for 6 hrs by Western blot analysis; assay type: cell-based
T3 sequence (Q9Y572 whole entry, looked up): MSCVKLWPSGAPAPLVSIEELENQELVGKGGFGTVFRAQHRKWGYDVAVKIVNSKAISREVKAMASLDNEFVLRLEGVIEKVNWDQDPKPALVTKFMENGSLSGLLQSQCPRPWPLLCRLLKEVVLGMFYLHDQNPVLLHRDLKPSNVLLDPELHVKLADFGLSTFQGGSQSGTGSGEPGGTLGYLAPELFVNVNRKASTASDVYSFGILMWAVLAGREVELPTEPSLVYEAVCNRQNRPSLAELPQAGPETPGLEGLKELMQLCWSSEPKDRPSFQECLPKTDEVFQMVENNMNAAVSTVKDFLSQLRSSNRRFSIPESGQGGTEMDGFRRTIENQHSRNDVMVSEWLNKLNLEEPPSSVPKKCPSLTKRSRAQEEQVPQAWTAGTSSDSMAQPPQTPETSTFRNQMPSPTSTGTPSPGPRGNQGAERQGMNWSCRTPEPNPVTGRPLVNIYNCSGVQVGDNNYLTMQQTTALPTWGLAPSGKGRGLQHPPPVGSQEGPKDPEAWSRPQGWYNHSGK

[13] = Acute toxicity in mouse assessed as increase in body weight at 100 to 200 mg/kg,IG and measured upto 14 days; assay type: organism-based; conditions: in vivo, po, 336 h, dose 100-200 mg/kg, time < 14 day
HT-29 [14] = assay: Anti-necroptic activity against human HT-29 cells assessed as inhibition of TCZ (human TNFalpha, cycloheximide and z-VAD-FMK) induced necroptosis at 125 to 500 nM pretreated with compound followed by TCZ stimulation for 18 hrs by CellTiter-Glo Luminescent cell viability assay; assay type: functional, cell-based; conditions: dose 125-500 nM
Mus musculus [15] = assay: Anti-inflammatory activity against C57BL/6J mouse model of TNFalpha-induced systemic inflammatory response syndrome (SIRS) assessed as decrease in IL-6 level in spleen at 1.25 to 5 mg/kg,po 2 hrs prior to mTNFalpha and z-VAD-FMK stimulation for 8 hrs by ELISA; assay type: functional, organism-based; conditions: dose 1.25-5 mg/kg, time 10.0 hrs
HT-29 [16] = assay: Anti-necroptic activity against human HT-29 cells assessed as inhibition of TSZ (TNFalpha, Smac mimetic and z-VAD-FMK) induced necroptosis pretreated with compound followed by TSZ stimulation for 16 to 18 hrs by CellTiter-Glo Luminescent cell viability assay; assay type: functional, cell-based
Mus musculus [17] = assay: Anti-inflammatory activity against C57BL/6J mouse model of TNFalpha-induced systemic inflammatory response syndrome (SIRS) assessed as decrease in serum IL-6 level at 5 mg/kg,po 2 hrs prior to mTNFalpha and z-VAD-FMK stimulation for 8 hrs by ELISA; assay type: functional, organism-based; conditions: time 10.0 hrs
[18] = biological target: T3, Receptor-interacting serine/threonine-protein kinase 3; assay: Inhibition of RIPK3 phosphorylation in TSZ induced human HT-29 cells at 1 to 1000 nM pretreated with compound followed by TSZ stimulation for 6 hrs by Western blot analysis; assay type: cell-based; conditions: dose 1-1000 nM

For `O=C(Cc1cccc(OC(F)(F)F)c1)Nc1cc(-c2ccc3nc(NC(=O)C4CC4)sc3c2)ccc1F`, the Activity [1] was “Non-Toxic”, the Activity [2] was “Non-Toxic” and the Activity (Mus musculus [3]) was “Dose-Dependent Effect”. The Activity (Mus musculus [4]) was “Active”, the Activity (Mus musculus [5]) was “Dose-Dependent Effect” and the inhibition [6] was “Active”. For the same compound, the Activity (HT-29 [7]) was “inactive”, the Stability [8] was “Stable” and the Activity (HT-29 [9]) was “inactive”. For the same compound, the Kd [10] was 17 nM, the inhibition [11] was “Dose-Dependent Effect” and the inhibition [12] was “Active”. The Activity [13] was “Non-Toxic”, the Activity (HT-29 [14]) was “Dose-Dependent Effect” and the Activity (Mus musculus [15]) was “Dose-Dependent Effect”. The EC50 (HT-29 [16]) was 17 nM, the Activity (Mus musculus [17]) was “Active” and the inhibition [18] was “Dose-Dependent Effect”.
